Reference: patent US9216968B2, “Heterocyclic derivative and pharmaceutical drug” (NIPPON SHINYAKU CO., LTD., priority 2011, dated 2015)
Structures can show the parent of a compound that is named as a salt.

Tests used:
human mPGES-1 = human mPGES-1 (Homo sapiens (Human), UniProt O14684); experiment: mPGES-1 inhibiting activity (microsome fractions, PGE2 by HTRF); format: biochemical; details: microsomes from CHO-K1 cells transfected with human mPGES-1; PGH2 1 μM, 4° C., 60 seconds; read-out: mPGES-1 Inhibition IC50
Chain of human mPGES-1 (O14684 whole entry): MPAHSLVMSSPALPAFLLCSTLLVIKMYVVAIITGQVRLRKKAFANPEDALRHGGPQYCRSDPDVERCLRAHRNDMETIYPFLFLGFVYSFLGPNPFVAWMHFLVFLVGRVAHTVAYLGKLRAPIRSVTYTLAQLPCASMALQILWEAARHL
Procedure, shortened: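 PGE2 formation read by HTRF after 60 s at 4 °C with 1 μM PGH2 substrate, following 20 min compound preincubation (1% DMSO) with human mPGES-1 microsomes from transfected CHO-K1 cells. Buffer: potassium phosphate, reduced glutathione, pH 7.4; IC50 from activity relative to enzyme-free blank.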

A549 cells = experiment: Inhibition of PGE2 production in A549 cell (IL-1β stimulated); format: cell-based, human; details: Homo sapiens, A549, 24 h, IL-1β 5 ng/well, PGE2 in culture medium
Procedure, shortened: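 After IL-1β (5 ng/well) stimulation for 24 h at 37 °C, following a 60-min compound pretreatment in RPMI with 3% FBS, medium PGE2 (HTRF) and PGF2α (EIA) from human A549 cells were quantified. 100% activity set as IL-1β-induced minus basal production; IC50 calculated.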

Row | IC50 (human mPGES-1) | IC50 (A549 cells) | SMILES
1 | 32.8 nM | > 10000 nM | Cc1c(Cl)cccc1NC(=O)c1cc(NC(=O)c2ccccc2C(F)(F)F)cc2[nH]c([C@H]3CCC(=O)N3)nc12 [Example 131, N-(3-Chloro-2-methylphenyl)-2-[(2R)-5-oxopyrrolidin-2-yl]-6-({[2-(trifluoromethyl)phenyl]carbonyl}amino)-1H-benzimidazole-4-carboxamide hydrochloride]
2 | 2.2 nM | 590 nM | Cc1c(Cl)cccc1NC(=O)c1cc(NC(=O)c2ccccc2C(F)(F)F)cc2[nH]c(CC(=O)N3CCCC3)nc12 [Example 132, N-(3-Chloro-2-methylphenyl)-2-[2-oxo-2-(pyrrolidin-1-yl)ethyl]-6-({[2-(trifluoromethyl)phenyl]carbonyl}amino)-1H-benzimidazole-4-carboxamide hydrochloride]
3 | 7 nM | 488 nM | Cc1c(Cl)cccc1NC(=O)c1cc(NC(=O)c2ccccc2C(F)(F)F)cc2[nH]c(CC(=O)N(C)C)nc12 [Example 133, N-(3-Chloro-2-methylphenyl)-2-[2-(dimethylamino)-2-oxoethyl]-6-({[2-(trifluoromethyl)phenyl]carbonyl}amino)-1H-benzimidazole-4-carboxamide hydrochloride]
4 | 10.3 nM | 921 nM | CNC(=O)Cc1nc2c(C(=O)Nc3cccc(Cl)c3C)cc(NC(=O)c3ccccc3C(F)(F)F)cc2[nH]1 [Example 134, N-(3-Chloro-2-methylphenyl)-2-[2-(methylamino)-2-oxoethyl]-6-({[2-(trifluoromethyl)phenyl]carbonyl}amino)-1H-benzimidazole-4-carboxamide hydrochloride]
5 | 0.3 nM | 87.3 nM | Cc1c(Cl)cccc1NC(=O)c1cc(NC(=O)c2ccccc2C(F)(F)F)cc2[nH]c(Cl)nc12 [Example 135, 2-Chloro-N-(3-chloro-2-methylphenyl)-6-({[2-(trifluoromethyl)phenyl]carbonyl}amino)-1H-benzimidazole-4-carboxamide]
6 | 2.4 nM | 61.9 nM | COCCNc1nc2c(C(=O)Nc3cccc(Cl)c3C)cc(NC(=O)c3ccccc3C(F)(F)F)cc2[nH]1 [Example 136, N-(3-Chloro-2-methylphenyl)-2-[(2-methoxyethyl)amino]-6-({[2-(trifluoromethyl)phenyl]carbonyl}amino)-1H-benzimidazole-4-carboxamide hydrochloride]
7 | 3.3 nM | 1110 nM | Cc1c(Cl)cccc1NC(=O)c1cc(NC(=O)c2ccccc2C(F)(F)F)cc2[nH]c(NCCO)nc12 [Example 137, N-(3-Chloro-2-methylphenyl)-2-[(2-hydroxyethyl)amino]-6-({[2-(trifluoromethyl)phenyl]carbonyl}amino)-1H-benzimidazole-4-carboxamide hydrochloride]
8 | 2.2 nM | 87.4 nM | CNc1nc2c(C(=O)Nc3cccc(Cl)c3C)cc(NC(=O)c3ccccc3C(F)(F)F)cc2[nH]1 [Example 138, N-(3-Chloro-2-methylphenyl)-2-(methylamino)-6-({[2-(trifluoromethyl)phenyl]carbonyl}amino)-1H-benzimidazole-4-carboxamide hydrochloride]
9 | 1.9 nM | 72.8 nM | CCNc1nc2c(C(=O)Nc3cccc(Cl)c3C)cc(NC(=O)c3ccccc3C(F)(F)F)cc2[nH]1 [Example 139, N-(3-Chloro-2-methylphenyl)-2-(ethylamino)-6-({[2-(trifluoromethyl)phenyl]carbonyl}amino)-1H-benzimidazole-4-carboxamide hydrochloride]
10 | 0.2 nM | 33 nM | Cc1c(Cl)cccc1NC(=O)c1cc(NC(=O)c2ccccc2C(F)(F)F)cc2[nH]c(NCC(C)(C)C)nc12 [Example 140, N-(3-Chloro-2-methylphenyl)-2-[(2,2-dimethylpropyl)amino]-6-({[2-(trifluoromethyl)phenyl]carbonyl}amino)-1H-benzimidazole-4-carboxamide hydrochloride]
11 | 0.4 nM | 36.5 nM | Cc1c(Cl)cccc1NC(=O)c1cc(NC(=O)c2ccccc2C(F)(F)F)cc2[nH]c(NC3CCCC3)nc12 [Example 141, N-(3-Chloro-2-methylphenyl)-2-(cyclopentylamino)-6-({[2-(trifluoromethyl)phenyl]carbonyl}amino)-1H-benzimidazole-4-carboxamide hydrochloride]
12 | 0.4 nM | 82.7 nM | Cc1c(Cl)cccc1NC(=O)c1cc(NC(=O)c2ccccc2C(F)(F)F)cc2[nH]c(N3CCCCC3)nc12 [Example 142, N-(3-Chloro-2-methylphenyl)-2-(piperidin-1-yl)-6-({[2-(trifluoromethyl)phenyl]carbonyl}amino)-1H-benzimidazole-4-carboxamide hydrochloride]
13 | 5.3 nM | 87.5 nM | Cc1c(Cl)cccc1NC(=O)c1cc(NC(=O)c2ccccc2C(F)(F)F)cc2[nH]c(N3CCN(C)CC3)nc12 [Example 143, N-(3-Chloro-2-methylphenyl)-2-(4-methylpiperazin-1-yl)-6-({[2-(trifluoromethyl)phenyl]carbonyl}amino)-1H-benzimidazole-4-carboxamide dihydrochloride]
14 | 9.7 nM | 2990 nM | Cc1c(Cl)cccc1NC(=O)c1cc(NC(=O)c2ccccc2C(F)(F)F)cc2[nH]c(N(CCO)CCO)nc12 [Example 144, 2-[Bis(2-hydroxyethyl)amino]-N-(3-chloro-2-methylphenyl)-6-({[2-(trifluoromethyl)phenyl]carbonyl}amino)-1H-benzimidazole-4-carboxamide hydrochloride]
15 | 1.6 nM | 13 nM | Cc1c(Cl)cccc1NC(=O)c1cc(NC(=O)c2ccccc2C(F)(F)F)cc2[nH]c(N(C)C)nc12 [Example 145, N-(3-Chloro-2-methylphenyl)-2-(dimethylamino)-6-({[2-(trifluoromethyl)phenyl]carbonyl}amino)-1H-benzimidazole-4-carboxamide hydrochloride]
16 | 3.1 nM | 129 nM | Cc1c(Cl)cccc1NC(=O)c1cc(NC(=O)c2ccccc2C(F)(F)F)cc2[nH]c(NCCN3CCOCC3)nc12 [Example 146, N-(3-Chloro-2-methylphenyl)-2-{[2-(morpholin-4-yl)ethyl]amino}-6-({[2-(trifluoromethyl)phenyl]carbonyl}amino)-1H-benzimidazole-4-carboxamide hydrochloride]
17 | 15.8 nM | 186 nM | Cc1c(Cl)cccc1NC(=O)c1cc(NC(=O)c2ccccc2C(F)(F)F)cc2[nH]c(NCCN(C)C)nc12 [Example 147, N-(3-Chloro-2-methylphenyl)-2-{[2-(dimethylamino)ethyl]amino}-6-({[2-(trifluoromethyl)phenyl]carbonyl}amino)-1H-benzimidazole-4-carboxamide hydrochloride]
18 | 1.9 nM | 324 nM | Cc1c(Cl)cccc1NC(=O)c1cc(NC(=O)c2ccccc2C(F)(F)F)cc2[nH]c(N3CC(O)C3)nc12 [Example 148, N-(3-Chloro-2-methylphenyl)-2-(3-hydroxyazetidin-1-yl)-6-({[2-(trifluoromethyl)phenyl]carbonyl}amino)-1H-benzimidazole-4-carboxamide hydrochloride]
19 | 1 nM | 43.3 nM | Cc1c(Cl)cccc1NC(=O)c1cc(NC(=O)c2ccccc2C(F)(F)F)cc2[nH]c(N3CC[C@H](N(C)C)C3)nc12 [Example 149, N-(3-Chloro-2-methylphenyl)-2-[(3S)-3-(dimethylamino)pyrrolidin-1-yl]-6-({[2-(trifluoromethyl)phenyl]carbonyl}amino)-1H-benzimidazole-4-carboxamide dihydrochloride]
20 | 2.1 nM | 376 nM | Cc1c(Cl)cccc1NC(=O)c1cc(NC(=O)c2ccccc2C(F)(F)F)cc2[nH]c(N3CC[C@H](O)C3)nc12 [Example 150, N-(3-Chloro-2-methylphenyl)-2-[(3S)-3-hydroxypyrrolidin-1-yl]-6-({[2-(trifluoromethyl)phenyl]carbonyl}amino)-1H-benzimidazole-4-carboxamide hydrochloride]
21 | 11.6 nM | 328 nM | CCN(CC)CCNc1nc2c(C(=O)Nc3cccc(Cl)c3C)cc(NC(=O)c3ccccc3C(F)(F)F)cc2[nH]1 [Example 151, N-(3-Chloro-2-methylphenyl)-2-{[2-(diethylamino)ethyl]amino}-6-({[2-(trifluoromethyl)phenyl]carbonyl}amino)-1H-benzimidazole-4-carboxamide hydrochloride]
22 | 31.6 nM | 854 nM | Cc1c(Cl)cccc1NC(=O)c1cc(NC(=O)c2ccccc2C(F)(F)F)cc2[nH]c(NCCN3CCCC3)nc12 [Example 152, N-(3-Chloro-2-methylphenyl)-2-{[2-(pyrrolidin-1-yl)ethyl]amino}-6-({[2-(trifluoromethyl)phenyl]carbonyl}amino)-1H-benz imidazole-4-carboxamide hydrochloride]
23 | 22.3 nM | 618 nM | Cc1c(Cl)cccc1NC(=O)c1cc(NC(=O)c2ccccc2C(F)(F)F)cc2[nH]c(NCCCN(C)C)nc12 [Example 153, N-(3-Chloro-2-methylphenyl)-2-{[3-(dimethylamino)propyl]amino}-6-({[2-(trifluoromethyl)phenyl]carbonyl}amino)-1H-benzimidazole-4-carboxamide hydrochloride]
24 | 20 nM | 64.4 nM | Cc1c(Cl)cccc1NC(=O)c1cc(NC(=O)c2ccccc2C(F)(F)F)cc2[nH]c(NCC(C)(C)CN(C)C)nc12 [Example 154, N-(3-Chloro-2-methylphenyl)-2-{[3-(dimethylamino)-2,2-dimethylpropyl]amino}-6-({[2-(trifluoromethyl)phenyl]carbonyl}amino)-1H-benzimidazole-4-carboxamide hydrochloride]
